Results: US12590099B2, “Inhibitors of histone deacetylase useful for the treatment or prevention of HIV infection” (Merck Sharp & Dohme LLC, priority 2018, dated 2026)
Read-outs that look alike come from different tables or passages of the source.

Legend:
Recombinant human HDAC8 = biological target: T1, Recombinant human HDAC8 (Homo sapiens, UniProt Q9BY41); experiment: Human HDAC enzyme inhibitor Fluor-de-Lys assay, HDAC8; type: biochemical; conditions: recombinant human HDAC8, Fluor-de-Lys assay
T1 construct: purchased Enzo Life Sciences BML-SE145-0100
T1 sequence (Q9BY41 1-377): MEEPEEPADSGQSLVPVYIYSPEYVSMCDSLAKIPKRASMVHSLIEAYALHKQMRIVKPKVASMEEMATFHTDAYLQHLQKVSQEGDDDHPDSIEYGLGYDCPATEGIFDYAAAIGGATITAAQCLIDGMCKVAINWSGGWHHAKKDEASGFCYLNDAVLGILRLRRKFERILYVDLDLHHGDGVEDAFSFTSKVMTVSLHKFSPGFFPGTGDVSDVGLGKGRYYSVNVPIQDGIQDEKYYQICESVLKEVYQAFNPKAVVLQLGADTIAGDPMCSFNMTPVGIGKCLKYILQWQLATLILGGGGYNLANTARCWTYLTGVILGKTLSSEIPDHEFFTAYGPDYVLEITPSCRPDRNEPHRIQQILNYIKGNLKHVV

KARN cells (Jurkat 2C4) = experiment: cells; type: cell-based; conditions: luciferase induction, 100% = 2 μM SAHA
In short: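 Jurkat 2C4 (KARN) cells dosed with test compounds up to 40 μM final, 0.4% DMSO, overnight at 5% CO2; luciferase read by Steady-Glo luminescence after 10 min at room temperature. DMSO set as 0% and 2 μM SAHA as 100% induction; 4-parameter fit of percent activation.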

[1] = Homo sapiens, Jurkat, read-out: Karn EC50 (nM) 0.1% NHS, 0.1% normal human serum
[2] = Homo sapiens, Jurkat, read-out: Karn EC50 (nM) 5% NHS, 5% normal human serum

| Structure (SMILES) | IC50 (Recombinant human HDAC8) [µM] | EC50 (KARN cells (Jurkat 2C4); [1]) [nM] | EC50 (KARN cells (Jurkat 2C4); [2]) [nM] | EC50 (KARN cells (Jurkat 2C4); read-out: Karn EC50 (nM) 0.1% NHS, 0.1% normal human serum) [nM] | EC50 (KARN cells (Jurkat 2C4); read-out: Karn EC50 (nM) 5% NHS, 5% normal human serum) [nM] |
| --- | --- | --- | --- | --- | --- |
| CCC(=O)CCCCC[C@H](NC(=O)C1=NOC2(CCN(C(C)=O)CC2)C1)c1ncc(-c2ccccc2)[nH]1 [Compound 380] | 6.33 | 1920 | 2410 | – | – |
| CCC(=O)CCCCC[C@H](NC(=O)C1=NOC2(CCN(C(=O)OC)CC2)C1)c1ncc(-c2ccccc2)[nH]1 [Compound 381] | 7.47 | 2740 | 6410 | – | – |
| CCC(=O)CCCCC[C@H](NC(=O)C1=NOC2(CCN(C)CC2)C1)c1ncc(-c2ccccc2)[nH]1 [Compound 382] | 6.64 | 665 | 1070 | – | – |
| CCC(=O)CCCCC[C@H](NC(=O)C1=NOC2(CCN(S(C)(=O)=O)CC2)C1)c1ncc(-c2ccccc2)[nH]1 [Compound 383] | 8.96 | 2620 | 3260 | – | – |
| CCC(=O)CCCCC[C@H](NC(=O)CCN1C(=O)C(CC)=NC12CCOCC2)c1ncc(-c2ccccc2)[nH]1 [Compound 384] | 8.93 | 2220 | 2410 | – | – |
| CCC(=O)CCCCC[C@H](NC(=O)C1=NOC2(CCN(C)CC2)C1)c1ncc(-c2cc3ccc(=O)n(C)c3cc2F)o1 [Compound 386] | > 0.9 | 934 | 1060 | – | – |
| CCC(=O)CCCCC[C@H](NC(=O)C1=NOC2(CCN(CC3CC3)CC2)C1)c1ncc(-c2cc3ccc(=O)n(C)c3cc2F)o1 [Compound 387] | > 0.9 | 1540 | 1700 | – | – |
| CCC(=O)CCCCC[C@H](NC(=O)[C@H]1CC12CCN(C)CC2)c1ncc(-c2cc3ocnc3cc2F)o1 [Compound 389] | > 0.9 | 1120 | 1550 | – | – |
| CCC(=O)CCCCC[C@H](NC(=O)C1=NOC2(CCN(C)CC2)C1)c1ncc(-c2ccc(Cl)cc2OC)o1 [Compound 390] | > 0.9 | – | – | 674 | 1680 |
| CCC(=O)CCCCC[C@H](NC(=O)C1=NOC2(CCN(C)CC2)C1)c1ncc(-c2ccc(-c3ccccn3)cc2OC)o1 [Compound 391] | > 0.9 | 460 | 541 | – | – |
| CCC(=O)CCCCC[C@H](NC(=O)[C@H]1CC12CCN(CC1CC1)CC2)c1ncc(-c2ccc3nc(C)ccc3c2)[nH]1 [Compound 393] | > 0.9 | 21 | 22 | – | – |
| CCC(=O)CCCCC[C@H](NC(=O)C1=NOC2(CCN(C)CC2)C1)c1ncc(-c2ccc(-c3ccncc3)cc2OC)o1 [Compound 395] | > 0.9 | 618 | 725 | – | – |
| CCC(=O)CCCCC[C@H](NC(=O)C1=NOC2(CCN(C)CC2)C1)c1ncc(-c2cc3ccc(N(C)C)nc3cc2OC)o1 [Compound 397] | > 0.9 | 279 | 327 | – | – |
| CCC(=O)CCCCC[C@H](NCC1CC1)c1ncc(-c2cc3ccc(C)nc3cc2OC)[nH]1 [Compound 398, (S)-9-((cyclopropylmethyl)amino)-9-(5-(7-methoxy-2-methylquinolin-6-yl)-1H-imidazol-2-yl)nonan-3-one] | > 0.9 | 5500 | 10200 | – | – |
| CCC(=O)CCCCC[C@H](NC(=O)[C@H]1CC12CCN(CC1CC1)CC2)c1ncc(-c2cc3ccc(=O)n(C)c3cc2F)o1 [Compound 400] | > 0.9 | 577 | 557 | – | – |
| CCC(=O)CCCCC[C@H](NCC1CN(C)C1)c1ncc(-c2cc3ccc(C)nc3cc2OC)o1 [Compound 401, (9S)-9-[5-(7-methoxy-2-methylquinolin-6-yl)-1,3-oxazol-2-yl]-9-{[(1-methylazetidin-3-yl)methyl]amino}nonan-3-one] | > 0.9 | 1840 | 2210 | – | – |
| CCN[C@@H](CCCCCC(=O)CC)c1ncc(-c2cc3ccc(C)nc3cc2OC)[nH]1 [Compound 403] | > 0.9 | 5340 | 5600 | – | – |
| CCC(=O)CCCCC[C@H](NCc1ccncc1)c1ncc(-c2cc3ccc(C)nc3cc2OC)[nH]1 [Compound 404] | > 0.9 | > 40000 | > 40000 | – | – |
| CCC(=O)CCCCC[C@H](NC(=O)[C@H]1CC12CCN(C)CC2)c1ncc(-c2cc3ccncc3cc2OC)o1 [Compound 405] | > 0.9 | 65 | 57 | – | – |
| CCC(=O)CCCCC[C@H](NC(=O)[C@H]1CC12CCN(C)CC2)c1ncc(-c2cc3ccc(N(C)C)nc3cc2OC)o1 [Compound 406] | 0.3 | 280 | 279 | – | – |
| CCC(=O)CCCCC[C@H](NC(=O)[C@H]1CC12CCN(C)CC2)c1ncc(-c2cc3ocnc3cc2OC)o1 [Compound 408] | > 0.9 | 250 | 593 | – | – |
| CCC(=O)CCCCCC(N)(COC)c1ncc(-c2cc3ccc(C)nc3cc2OC)[nH]1 (stereo not drawn) [Compound 414, 9-amino-10-methoxy-9-[5-(7-methoxy-2-methylquinolin-6-yl)-1H-imidazol-2-yl]decan-3-one] | > 0.9 | > 40000 | > 40000 | – | – |
| CCC(=O)CCCCC[C@H](NC(=O)C1=NOC2(CCN(C)CC2)C1)c1ncc(-c2cc3ccncc3cc2OC)o1 [Compound 415] | > 0.9 | 105 | 118 | – | – |
| CCCC(=O)CCCCC[C@H](NC(=O)[C@H]1CC12CCN(CC1CC1)CC2)c1ncc(-c2cc3ccc(C)nc3cc2OC)[nH]1 [Compound 416] | > 0.9 | 11 | 15 | – | – |
| CCC(=O)CCCCCC(CC)(NC(=O)[C@H]1CC12CCN(CC1CC1)CC2)c1nc(-c2cc3ccc(C)nc3cc2OC)c[nH]1 (stereo partly drawn) [Compound 420, (1S)-6-(cyclopropylmethyl)-N-{3-[4-(7-methoxy-2-methylquinolin-6-yl)-1H-imidazol-2-yl]-9-oxoundecan-3-yl}-6-azaspiro[2.5]octane-1-carboxamide] | > 0.9 | 11800 | > 40000 | – | – |
| CCC(=O)CCCCC[C@H](NC(=O)[C@H]1CC12CCN(CC1CC1)CC2)c1ncc(-c2cc3ccc(C)nc3cc2OC)o1 [Compound 422] | > 0.9 | 15 | 10 | – | – |
| CCCC(=O)CCCCC[C@H](N)c1ncc(-c2cc3ccc(C)nc3cc2OC)[nH]1 [Compound A30] | 0.542 | 1490 | 5610 | – | – |
